{"source": "patent US20210283087A1", "about": "“METHOD FOR TREATING AND RELIEVING MYOPIA” (China Medical University, priority 2014, published 2021)", "key": {"guinea pig with MFD": {"test_system": "guinea pig with MFD", "assay": "Refractive power and axial length in guinea pig MFD model", "assay_type": "in vivo, albino guinea pigs", "settings": "MFD + 1% atropine; Day 21", "method": "(§1) In this study, a total of 160 golden Syrian hamsters aged 3 weeks, weighing 80 to 90 g, and 20 albino guinea pigs, aged 2 to 3 weeks, were used for experiments. All animals were kept in a 12-hour light/dark cycle. All procedures were approved by the Institutional Animal Care and Use Committee of China Medical University and were conducted in accordance with the guidelines of the Use of Animals in Ophthalmic and Vision Research. Hamsters were raised with a right eyelid fusion for 21 days. Myopia was induced in the guinea pigs by covering the right eye with a cloth attached to the skin at a distance of at least 1 cm from the eye. MFD was induced in the right eye (with the left eye serving as a control) of animals randomly assigned to treatment or control groups (n=10 animals each) receiving daily applications of drug or phosphate-buffered saline (PBS), respectively, to both eyes.\nThe RE (i.e., spherical-component RE, which is defined as the mean RE in horizontal and vertical meridians) was measured using a hand-held streak retinoscope. Animals were anesthetized with 10% ether in O2. Ocular refraction was evaluated at the start and end of the experiment. […] The axial lengths were determined through A-scan ultrasonography (PacScan 300 Plus, NY, USA). […]"}, "[1]": {"test_system": "sclera or retina of guinea pig MFD eye", "assay": "Immunohistochemistry of guinea pig MFD eyes", "assay_type": "in vivo", "method": "Eyes were collected from atropine-treated and control animals, embedded in paraffin, and cut at a thickness of 20 μm; subsequently, the sections were placed on glass slides. Antigen retrieval was performed by boiling the slides in citrate buffer (pH 6.0); the sections were then stained with antibodies against IL-6, TNF-α, TGF-β, MMP2, c-Fos, NF-κB, and CHRM1 and 3. The EnVision System peroxidase kit (DAKO, Carpentaria, Calif., USA) was used to visualize immunoreactivity.\nWe observed a similar increase in inflammatory response in hamsters as we did in a guinea pig model of MFD."}, "[2]": {"test_system": "primary sclera fibroblast", "assay": "Immunofluorescence of MMP2 and COL1 in primary scleral fibroblasts", "assay_type": "cell-based, rat", "settings": "100 μM atropine for 24 hours", "method": "Primary sclera fibroblast cells plating on cover slides were washed with Tris-buffered saline (TBS), and subsequently fixed with 4% paraformaldehyde and washed twice with TBS before blocking with 1% BSA and 0.1% Triton X-100 for 1 hour. The cells were incubated with anti-MMP2 or anti-COL1 for 1 hour before being washed three times with TBS and subsequently incubated with an appropriate secondary antibody and a 4′,6-diamidino-2-phenylindole (DAPI) DNA stain. After being washed three times with TBS, the cells were imaged using fluorescence microscopy. All experiments were performed at least in triplicate."}, "MMP2": {"test_system": "MMP2", "assay": "Gelatin zymography of MMP2 activity in LPS-activated scleral fibroblasts and ARPE-19 cells", "assay_type": "cell-based", "settings": "LPS + 100 μM atropine or LPS + 50 μM diacerein; 48 hours", "method": "To facilitate subsequent analysis, 1×10^6 cells were seeded in 24-well plates for at least 12 hours. […] To measure the MMP-2/MMP-9 activities, samples were separated using 8% SDS-PAGE containing 0.1% gelatin."}, "Retinal cell (R28)": {"test_system": "Retinal cell (R28)", "assay": "Gene expression by real-time PCR in LPS-treated R28 retinal cells", "assay_type": "cell-based, rat", "method": "R28 rat retinal epithelial cells were provided by Gail Seigel at the Ross Eye Institute (SUNY, Buffalo, N.Y., USA). The cells were cultured in Dulbecco's modified Eagle's medium (DMEM) with 10% fetal bovine serum (FBS) at 37° C. and 5% CO2, with medium replacement every 3 days to 4 days. Sclera were placed in a 60-mm culture dish in DMEM supplemented with 10% FBS to isolate primary scleral fibroblasts; those from fewer than three passages were used in experiments. […] Cell lysates were collected for quantitative (q)PCR to determine gene expression levels.\nTotal RNA was extracted using the RNeasy MiniKit (Qiagen, Valencia, Calif., USA), and 5 μg of RNA was reverse-transcribed to cDNA by using the Superscript First Strand Synthesis system (Invitrogen, Carlsbad, Calif., USA). Primers and probes used for qPCR were selected from the Universal Probes Library (Roche, West Sussex, UK). Transcript levels were normalized to those of glyceraldehyde 3-phosphate dehydrogenase in each sample."}, "[3]": {"test_system": "monocular form deprivation (MFD) Syrian hamster", "assay": "Refractive power in monocular form deprivation (MFD) hamster model, streak retinoscope", "assay_type": "in vivo, golden Syrian hamsters", "settings": "for Refractive power, BL: left eye before MFD / Refractive power, BR: right eye before MFD: baseline; for Refractive power, FL: left eye after MFD / Refractive power, FR: right eye after MFD (occluded eye): 21 days; for Refractive error FR-BR: MFD right eye; for Refractive error FL-BL: non-MFD left eye", "method": "as §1\nThe RE (i.e., spherical-component RE, which is defined as the mean RE in horizontal and vertical meridians) was measured using a hand-held streak retinoscope. Animals were anesthetized with 10% ether in O2. Ocular refraction was evaluated at the start and end of the experiment. At the end of the study, animals were sacrificed through CO2 asphyxiation according to the guidelines of the Public Health Service, Office of Laboratory Animal Welfare, National Institutes of Health, and American Association of Veterinary Medicine. Eyes were enucleated using a razor blade on an ice plate under a surgical microscope (Topcon, Tokyo, Japan) by cutting perpendicularly to the anterior-posterior axis approximately 1 mm posterior to the ora serrata. The iris and ciliary body of the anterior segment of the eye were separated. Posterior sclera was excised using a 7-mm-diameter trephine. The axial lengths were determined through A-scan ultrasonography (PacScan 300 Plus, NY, USA). The average of 10 unique measurements was used."}, "[4]": {"test_system": "sclera and retina of hamster eyes", "assay": "Immunohistochemistry of hamster eyes (sclera, retina)", "assay_type": "in vivo", "method": "Antigen retrieval was performed by boiling the slides in citrate buffer (pH 6.0); the sections were then stained with antibodies against IL-6, TNF-α, TGF-β, MMP2, c-Fos, NF-κB, and CHRM1 and 3. The EnVision System peroxidase kit (DAKO, Carpentaria, Calif., USA) was used to visualize immunoreactivity."}, "[5]": {"settings": "R28, 100 ng/ml LPS and 100 μM atropine for 4 hours"}, "[6]": {"settings": "Atropine 0.125%, listed as atropine"}, "[7]": {"settings": "Atropine 0.5%, listed as atropine"}, "[8]": {"settings": "Atropine 1%, listed as atropine"}}}
{"smiles": "CN1[C@@H]2CC[C@H]1C[C@@H](OC(=O)C(CO)c1ccccc1)C2", "note": "(stereo partly shown) [Atropine, atropine]", "values": [{"measurement": "Refractive power, left eye (control eye)", "setting": "guinea pig with MFD", "result": "−1.50±0.82", "unit": "D"}, {"measurement": "Refractive power, right eye (myopic eye)", "setting": "guinea pig with MFD", "result": "−6.79±1.00", "unit": "D"}, {"measurement": "MFD downregulation of IL-10 level", "setting": "[1]; atropine", "result": "suppressed"}, {"measurement": "COL1 expression in sclera or retina of the MFD eye", "setting": "[1]; atropine compared to PBS", "result": "increased"}, {"measurement": "MMP2, TGF-β, and c-Fos expression in sclera or retina of the MFD eye", "setting": "[1]; atropine compared to PBS", "result": "reduced"}, {"measurement": "COL1 expression", "setting": "[2]", "result": "increased"}, {"measurement": "Expression levels of MMP2", "setting": "[2]", "result": "inhibited"}, {"measurement": "MMP2 activities in cells activated by LPS", "setting": "MMP2", "result": "decreased"}, {"measurement": "Chrm5 gene expression level", "setting": "Retinal cell (R28)", "result": "0.78 ± 0.24"}, {"measurement": "Chrm 1 gene expression level", "setting": "Retinal cell (R28); [5]", "result": "0.65 ± 0.16"}, {"measurement": "Chrm 2 gene expression level", "setting": "Retinal cell (R28); [5]", "result": "1.96 ± 0.2"}, {"measurement": "Chrm 3 gene expression level", "setting": "Retinal cell (R28); [5]", "result": "0.78 ± 0.11"}, {"measurement": "Chrm 4 gene expression level", "setting": "Retinal cell (R28); [5]", "result": "0.81 ± 0.23"}, {"measurement": "Fos gene expression level", "setting": "Retinal cell (R28); [5]", "result": "0.76 ± 0.17"}, {"measurement": "IL1b gene expression level", "setting": "Retinal cell (R28); [5]", "result": "0.17 ± 0.24"}, {"measurement": "IL10 gene expression level", "setting": "Retinal cell (R28); [5]", "result": "1.81 ± 0.15"}, {"measurement": "IL-6 gene expression level", "setting": "Retinal cell (R28); [5]", "result": "0.86 ± 0.19"}, {"measurement": "MMP2 gene expression level", "setting": "Retinal cell (R28); [5]", "result": "0.75 ± 0.16"}, {"measurement": "NFkB gene expression level", "setting": "Retinal cell (R28); [5]", "result": "0.85 ± 0.08"}, {"measurement": "Tgfb1 gene expression level", "setting": "Retinal cell (R28); [5]", "result": "0.82 ± 0.11"}, {"measurement": "Tnfa gene expression level", "setting": "Retinal cell (R28); [5]", "result": "0.84 ± 0.24"}, {"measurement": "Refractive power, BL: left eye before MFD", "setting": "[3]; Atropine 0.125% group", "result": "11.85 ± 0.18", "unit": "D"}, {"measurement": "Refractive power, BR: right eye before MFD", "setting": "[3]; Atropine 0.125% group", "result": "11.9 ± 0.07", "unit": "D"}, {"measurement": "Refractive power, FL: left eye after MFD", "setting": "[3]; Atropine 0.125%", "result": "8.32 ± 0.16", "unit": "D"}, {"measurement": "Refractive power, FR: right eye after MFD (occluded eye)", "setting": "[3]; Atropine 0.125%", "result": "6.45 ± 0.1", "unit": "D"}, {"measurement": "Refractive power, FL: left eye after MFD", "setting": "[3]; [6]", "result": "8.32±0.16", "unit": "D"}, {"measurement": "Refractive power, FR: right eye after MFD (occluded eye)", "setting": "[3]; [6]", "result": "6.45±0.1", "unit": "D"}, {"measurement": "Refractive error FR-BR", "setting": "[3]; Atropine 0.125%", "result": "−5.45 ± 0.07", "unit": "D"}, {"measurement": "Refractive error FL-BL", "setting": "[3]; Atropine 0.125%", "result": "−3.53 ± 0.28", "unit": "D"}, {"measurement": "Refractive power, BL: left eye before MFD", "setting": "[3]; Atropine 0.5% group", "result": "11.69 ± 0.13", "unit": "D"}, {"measurement": "Refractive power, BR: right eye before MFD", "setting": "[3]; Atropine 0.5% group", "result": "11.61 ± 0.1", "unit": "D"}, {"measurement": "Refractive power, FL: left eye after MFD", "setting": "[3]; Atropine 0.5%", "result": "8.58 ± 0.12", "unit": "D"}, {"measurement": "Refractive power, FR: right eye after MFD (occluded eye)", "setting": "[3]; Atropine 0.5%", "result": "6.72 ± 0.11", "unit": "D"}, {"measurement": "Refractive power, FL: left eye after MFD", "setting": "[3]; [7]", "result": "8.58±0.12", "unit": "D"}, {"measurement": "Refractive power, FR: right eye after MFD (occluded eye)", "setting": "[3]; [7]", "result": "6.72±0.11", "unit": "D"}, {"measurement": "Refractive error FR-BR", "setting": "[3]; Atropine 0.5%", "result": "−4.89 ± 0.18", "unit": "D"}, {"measurement": "Refractive error FL-BL", "setting": "[3]; Atropine 0.5%", "result": "−3.11 ± 0.19", "unit": "D"}, {"measurement": "Refractive power, BL: left eye before MFD", "setting": "[3]; Atropine 1% group", "result": "11.85 ± 0.18", "unit": "D"}, {"measurement": "Refractive power, BR: right eye before MFD", "setting": "[3]; Atropine 1% group", "result": "11.79 ± 0.15", "unit": "D"}, {"measurement": "Refractive power, FL: left eye after MFD", "setting": "[3]; Atropine 1%", "result": "10.79 ± 0.16", "unit": "D"}, {"measurement": "Refractive power, FR: right eye after MFD (occluded eye)", "setting": "[3]; Atropine 1%", "result": "7.06 ± 0.29", "unit": "D"}, {"measurement": "Refractive power, FL: left eye after MFD", "setting": "[3]; [8]", "result": "10.79±0.16", "unit": "D"}, {"measurement": "Refractive power, FR: right eye after MFD (occluded eye)", "setting": "[3]; [8]", "result": "7.06±0.29", "unit": "D"}, {"measurement": "Refractive error FR-BR", "setting": "[3]; Atropine 1%", "result": "−4.74 ± 0.39", "unit": "D"}, {"measurement": "Refractive error FL-BL", "setting": "[3]; Atropine 1%", "result": "−1.06 ± 0.22", "unit": "D"}, {"measurement": "IL-6 and TNF-α immunoreactivity in the retina of MFD eyes", "setting": "[4]; 1% atropine", "result": "reduced"}, {"measurement": "c-Fos and NF-κB expression in the retinas of MFD eyes", "setting": "[4]; 1% atropine", "result": "suppressed"}, {"measurement": "COL1 expression in the sclera of the MFD eye", "setting": "[4]; 1% atropine compared with PBS", "result": "increased"}, {"measurement": "MMP2 expression in the sclera of the MFD eye", "setting": "[4]; 1% atropine compared with PBS", "result": "decreased"}, {"measurement": "MFD upregulation of TGF-β level in retina and sclera", "setting": "[4]; atropine", "result": "suppressed"}, {"measurement": "IL-10 expression", "setting": "[4]; atropine treatment", "result": "elevated"}, {"measurement": "CHRM1 and CHRM 3 expression in MFD eyes", "setting": "[4]; atropine treatment compared with PBS-treated MFD eyes", "result": "downregulated"}]}
